# Test results: article PMC12194779, “Synergistic Insecticidal Activity of Plant Volatile Compounds: Impact on Neurotransmission and Detoxification Enzymes in Sitophilus zeamais” (Insects, 2025)
# Several values for one entry are separate records, joined by “and”; a condition that tells them apart may be missing. Identical values can stand only once. Like-named read-outs stand apart in the source and are kept apart here.
# Tests used:
# [1] = system: glutathione S-transferase (GST) activity in S. zeamais; assay: GST activity assay (modified Habig) with S. zeamais protein extract; type: biochemical, Sitophilus zeamais; conditions: 120 mg/L
# Description: Enzymatic assays were performed in the assay buffer, consisting of 0.1 M potassium phosphate buffer (pH 7.2). The compounds and mixtures evaluated in the in vitro assays were prepared in the same buffer supplemented with 0.5% (v/v) Triton X-100 (Sigma-Aldrich®, Saint Louis, MO, USA).
# A modified version of the method described by Oviedo et al. was used. Adults of S. zeamais (8 g; ~3125 insects) were frozen in liquid nitrogen, homogenized in a 1:10 ratio with assay buffer, and centrifuged at 13,000× g for 60 min at 4 °C. The supernatant was filtered, and 20 mM benzamidine was added. The extracts were stored in 5 mL aliquots at −20 °C. Preliminary assays were performed to quantify the specific activity of AChE (0.02–1.00 U/mL), GST (0.1–0.8 U/mL), and CAT (0.1–25 U/mL), and to optimize assay conditions (enzyme dilution: 1/8 to 1% v/v; substrate concentrations: 2 × km or within assay linearity). Each experiment was performed independently three times, with three technical replicates per experiment.
# A modified version of Habig’s method was used. The protein extract (50 µL; 0.59 U/mL) was incubated with 50 µL of the compound or mixture (120 mg/L), followed by 50 µL each of CDNB and reduced glutathione (GSH). Kinetic absorbance was measured at 340 nm for 8 min. Blanks (without substrate) and quercetin (positive control) were included. Inhibition (%) was calculated using Equation (5), and treatment differences were evaluated via parametric ANOVA (α = 0.05) in GraphPad Prism 8.0.2 [42, 43]. Each experiment was performed independently three times, with three technical replicates per experiment.(5) % Inhibition=1−Am−AB/AC ×100 where Am is the absorbance of the sample, AB is the absorbance of the blank, and AC is the absorbance of the negative control.
# AChE of S. zeamais = assay: AChE activity assay (modified Ellman) with S. zeamais protein extract; type: biochemical, Sitophilus zeamais; set-up: key to AChE Effect Inhibitor Type: C: competitive inhibitor; NC: non-competitive inhibitor
# Description: The compounds and mixtures evaluated in the in vitro assays were prepared in the same buffer supplemented with 0.5% (v/v) Triton X-100 (Sigma-Aldrich®, Saint Louis, MO, USA).
# The supernatant was filtered, and 20 mM benzamidine was added. The extracts were stored in 5 mL aliquots at −20 °C. Preliminary assays were performed to quantify the specific activity of AChE (0.02–1.00 U/mL), GST (0.1–0.8 U/mL), and CAT (0.1–25 U/mL), and to optimize assay conditions (enzyme dilution: 1/8 to 1% v/v; substrate concentrations: 2 × km or within assay linearity).
# Then, 50 µL of DTNB and 50 µL of ATChI were added. […] Inhibition percentages were calculated using Equation (5).
# Sitophilus zeamais [2] = type: in vivo; conditions: for Contact Toxicity LD50 (95% FL) / Contact Toxicity LD90 (95% FL): topical, 24 h after exposure
# Description: (§1) The insects used in this study were Sitophilus zeamais Motschulsky (Coleoptera: Curculionidae), identified by the Instituto Colombiano Agropecuario (ICA) under report number R3823M0000425. […] The adult insects used in all the experiments were 6 to 10 days post-emergence.
# Groups of 10 insects, previously placed in Petri dishes, were immobilized by exposure to low temperatures (0 °C). An initial dose of 50.0 µg per adult was applied topically to the dorsal thorax of each insect using aliquots of 0.20 µL from 0.25 mg/µL solutions in n-hexane. […] All treatments were performed in two independent experiments, each with four replicates. Insect mortality was assessed after 24 h, and mortality percentages were calculated using Abbott’s correction formula (Equation (1)).
# (§2) Mixtures predicted by the RSM were prepared based on mole fractions. […] Four replicates were performed for each treatment and control across two independent experimental runs.
# (§3) Dose reduction indices (DRIs) were also calculated to estimate how much the dose of each compound in a synergistic combination could be reduced to achieve a 50% effect (Equation (4)). DRIs were interpreted as favorable when >1, neutral at 1, and unfavorable when <1.
# S. zeamais [3] = system: S. zeamais; set-up: method as in PMID 21173724, PMID 22236213; conditions: cited from earlier work
# S. zeamais [4] = conditions: cited from earlier work; for LC50 in vapor-phase assays without physical barriers: previous reports
# Sitophilus zeamais [5] = assay: whole plant or invertebrate; conditions: Sitophilus zeamais; for EC90: read-out: Fumigant Toxicity LC90 (95% FL)
# Description: as §1
# The treated disks were affixed to the inner surface of the screw cap of 22 mL glass vials. […] All treatments were performed in two independent experiments, each with five replicates.
# as §2
# as §3, with “<1. Values above the log DRI = 0 line indicate favorable dose reductions.(4) (IRD)i=CL50i(fax)i/(1−(fax)i)^1/mi/(D)i” for “<1.”
# [6] = system: CAT activity in S. oryzae; set-up: method as in PMID 31027573; conditions: cited from earlier work
# [7] = cited from earlier work
# [8] = in Homo sapiens, 24 h, read-out: Fumigant Toxicity LC50 (95% FL)
SMILES,Contact Toxicity LD50 (95% FL) (Sitophilus zeamais [2]),LC50 in vapor-phase assays without physical barriers (S. zeamais [4]),LC50 (Sitophilus zeamais [5]; [8]),"EC90 (Sitophilus zeamais [5]; in Homo sapiens, 24 h)",also measured
"CC(C)=CCC[C@@H](C)CC=O [Compound C33, Citronellal]",36.94 (34.60–39.14) µg/Adult,,,,"GST Inhibition λ340 (%) [1]: 4.3%; AChE inhibition type (Lineweaver–Burk plots), in words (AChE of S. zeamais): competitive inhibition; AChE Effect Inhibitor Type (AChE of S. zeamais; Lineweaver–Burk): C; AChE Effect IC50 ± SD (AChE of S. zeamais; S. zeamais protein extract): 7.72 ± 0.78 µg/mL; Ki (AChE of S. zeamais; S. zeamais protein extract, read-out: AChE Effect ki ± SD (inhibitory constant)): 199 ± 3.51 µM; Contact Toxicity LD50i (LC-95%) (Sitophilus zeamais [2]; mixtures and their components (Table 3)): 36.94 µg/Adult; Contact Toxicity LD90 (95% FL) (Sitophilus zeamais [2]): 50.64 (47.46–55.39) µg/Adult; Contact LD50 previously reported for 7-day assays (S. zeamais [3]): 8.54 µg/adult"
"CC1=CC=C(C(C)C)CC1 [Compound C13, α-Terpinene]",,56.2 mg/L,60.2 µg/mL and 442 µM,96.2 µg/mL and 706 µM,
CC(C)[C@@H]1CC[C@@H](C)CC1=O [menthone],,,,,reduction of CAT activity [6]: ~ 30%
"Cc1ccc(C(C)C)cc1 [Compound C12, p-Cymene]",,23.3 mg/L,28.7 µg/mL and 214 µM,47 µg/mL and 350 µM,
"CC1=CCC2CC1C2(C)C (stereo not drawn) [Compound C19, α-Pinene]",,120 µL/L,110 µg/mL and 810 µM,179 µg/mL and 1.31 mM,
"CC1=CC[C@@](O)(C(C)C)CC1 [Compound C5, R-(−)-Terpinen-4-ol]",19.64 (18.42–21.45) µg/Adult,,4.03 µg/mL and 26.1 µM,6.13 µg/mL and 39.8 µM,"Fumigant LC50 reported in 7-day exposure assays (S. zeamais [4]; 7-day exposure): 4.79 µg/mL; Contact Toxicity LD90 (95% FL) (Sitophilus zeamais [2]): 24.82 (22.64–29.63) µg/Adult; LC50 (Sitophilus zeamais [5]; read-out: LC50 values, fumigant activity (Figure 3)): 4.03 µg/mL"
CC1(C)C(C=C(Cl)Cl)C1C(=O)OCc1cccc(Oc2ccccc2)c1 (stereo not drawn) [permethrin],,,,,reported LD50 [7]: 42.75 µg/adult
"CCCCCCCCC [Compound C20, n-Nonane]",21.42 µg/Adult,,109 µg/mL and 851 µM,172 µg/mL and 1.34 mM,Contact LD50 previously reported for 7-day assays (S. zeamais [3]): 17.62 µg/adult
